Data set [1] is described as follows: Inhibition of HIF-1 in human HeLa cells transfected with CMV driven renilla luciferase reporter gene incubated for 1 hr under normoxic condition and 12 hrs under hypoxia condition by HRE-based dual luciferase reporter gene assay. The data set is classed as cell-based. A general note: A reporter such as luciferase makes a cellular process visible.
Data set [2] in a line: Cytotoxicity against human HeLa cells assessed as growth inhibition incubated for 60 hrs under normoxic condition by MTT assay. In kind it is cell-based.

Molecules are shown by their SMILES.

On to `COc1ccc(-c2cn(C(=O)C(OC)c3ccc(OC)cc3)cc2-c2ccc(OC)cc2)cc1` (stereo unspecified), for which the IC50 (usually the concentration that inhibits the measured activity by half) in data set [1] is above 50 µM. Besides, the GI50 (as a rule, the concentration that inhibits growth by half) at 60 h in data set [2] is above 100 µM.
As to `COc1ccc(CC(=O)n2cc(-c3ccc(OC)cc3)c(-c3ccc(OC)cc3)c2)cc1`, in data set [1], the IC50 came out at 22.5 µM. The GI50 at 60 h in data set [2] is above 100 µM.
In turn, `O=C(c1ccc(O)cc1)n1cc(-c2ccc(O)cc2)c(-c2ccc(O)cc2)c1` displayed an IC50 in data set [1] of 18.8 µM. Also, the GI50 at 60 h in data set [2] turned out to be 76 µM.
As for `COc1ccc(/C=C/C(=O)n2cc(-c3ccc(OC)cc3)c(-c3ccc(OC)cc3)c2)cc1`, the IC50 in data set [1] is above 100 µM. Also, in data set [2], the GI50 at 60 h is above 100 µM.
In data set [1], `COc1ccc(-c2cn(C(=O)C(O)c3ccc(OC)cc3)cc2-c2ccc(OC)cc2)cc1` (stereo unspecified) yielded an IC50 of 11.9 µM. In data set [2], the GI50 at 60 h turned out to be 44.2 µM.
In data set [1], `O=C(/C=C/c1ccc(O)cc1)n1cc(-c2ccc(O)cc2)c(-c2ccc(O)cc2)c1` came in with an IC50 of 16.6 µM. Moreover, in data set [2], the GI50 at 60 h was found to be 27.3 µM.
`COc1ccc(CCC(=O)n2cc(-c3ccc(OC)cc3)c(-c3ccc(OC)cc3)c2)cc1` displayed an IC50 in data set [1] of 26.8 µM. For the same compound, the GI50 at 60 h in data set [2] is above 100 µM.
Regarding `O=C(Cc1ccc(O)cc1)n1cc(-c2ccc(O)cc2)c(-c2ccc(O)cc2)c1` [NEOLAMELLARIN A], the IC50 in data set [1] was 10.8 µM. Besides, the GI50 at 60 h in data set [2] was found to be 59.5 µM.
The like results for `O=C(c1ccccc1)n1cc(-c2ccc(O)cc2)c(-c2ccc(O)cc2)c1` were, in that order, 16.8 µM and 32.9 µM.
On the same counts, the results for `COc1ccc(C(=O)n2cc(-c3ccc(OC)cc3)c(-c3ccc(OC)cc3)c2)cc1` are 24.4 µM and above 100 µM.
In turn, `COc1ccc(-c2cn(C(=O)c3ccccc3)cc2-c2ccc(OC)cc2)cc1` had an IC50 in data set [1] of 14.6 µM. The GI50 at 60 h in data set [2] is above 100 µM.
The like results for `O=C(c1ccccc1)n1cc(-c2ccccc2)c(-c2ccccc2)c1` were, in that order, 16 µM and 67.1 µM.
In data set [1], `O=C(CCc1ccc(O)cc1)n1cc(-c2ccc(O)cc2)c(-c2ccc(O)cc2)c1` registered an IC50 of 14.7 µM. Besides, the GI50 at 60 h in data set [2] came out at 51.5 µM.
